We go through one compound from patent US5326902A, “Oxyalkyne compounds, pharmaceutical compositions containing them and processes for preparing such compounds and compositions” (Gruenenthal GmbH, priority 1992, dated 1994).

As a reminder, the IC50 is the concentration that inhibits the measured activity by half.

For test [1], the target named is T1, 12-lipoxygenase (Homo sapiens, UniProt P18054).
T1 sequence (P18054 1-663): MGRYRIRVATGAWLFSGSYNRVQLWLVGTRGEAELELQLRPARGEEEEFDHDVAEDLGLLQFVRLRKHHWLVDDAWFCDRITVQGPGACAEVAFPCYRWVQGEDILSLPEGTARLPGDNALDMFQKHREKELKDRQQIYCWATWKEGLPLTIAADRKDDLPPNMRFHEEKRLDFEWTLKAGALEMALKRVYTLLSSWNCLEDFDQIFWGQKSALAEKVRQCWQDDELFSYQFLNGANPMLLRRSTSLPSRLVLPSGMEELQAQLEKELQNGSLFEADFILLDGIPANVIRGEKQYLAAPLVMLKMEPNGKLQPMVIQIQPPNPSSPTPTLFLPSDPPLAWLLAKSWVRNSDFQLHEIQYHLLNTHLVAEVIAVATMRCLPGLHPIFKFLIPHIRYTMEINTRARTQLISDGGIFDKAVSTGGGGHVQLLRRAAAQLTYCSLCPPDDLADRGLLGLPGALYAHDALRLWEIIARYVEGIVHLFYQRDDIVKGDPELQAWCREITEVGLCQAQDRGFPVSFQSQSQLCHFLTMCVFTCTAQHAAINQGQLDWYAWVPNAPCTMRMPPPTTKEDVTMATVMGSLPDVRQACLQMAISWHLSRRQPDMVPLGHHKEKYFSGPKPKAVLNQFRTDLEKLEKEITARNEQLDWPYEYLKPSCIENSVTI
Briefly: Inhibition of 12-HETE- and 5S,12S-DiHETE-synthesis induced by FMLP/merthiolate of human polymorphonuclear leukocytes and thrombocytes. It is filed as cell-based. Particulars: coincubation of human granulocytes and thrombocytes, read-out: IC50-value of the inhibitory action on 12-lipoxygenase. How it is done:
Human granulocytes were isolated by dextran sedimentation and a Percoll gradient method and suspended in HBSS (Hanks buffered saline solution) at 1×10^7 cells/ml. The cells were incubated in the presence of a compound according to the invention or a solvent (ethanol and/or dimethyl sulfoxide) at 37° C. for 2 minutes, then with merthiolate (sodium ethylmercurithiosalicylate; 40 μM) for 2 minutes and thereafter with FMLP (formyl-methionyl-leucylphenylalanine; 10^-7 M) for 15 minutes. After solid phase extraction, the metabolites of arachidonic acid 5-HETE, LTB4, 6-trans-LTB4 -isomers, 20-OH-LTB4 and 20-COOH-LTB4 were identified by RP-HPLC (M. Haurand and L. Flohe in Biochem. Pharmacol. 38, 2129 to 2137 (1989)).
Coincubations of human granulocytes and thrombocytes were carried out and investigated for inhibition of leukotriene-synthesis induced by FMLP/merthiolate. 12-HETE and 5S, 12S-DiHETE were additionally included into the evaluation. The IC50 -value of the inhibitory action on 12-lipoxygenase was 5 μmolar when the compound prepared according to Example 1 was used.

Test [2] deals with T2, 5-lipoxygenase (Rattus norvegicus, UniProt P12527).
T2 construct: endogenous in cells; host or cells: RBL-1 cells (rat basophilic leukemia)
T2 sequence (P12527 1-673): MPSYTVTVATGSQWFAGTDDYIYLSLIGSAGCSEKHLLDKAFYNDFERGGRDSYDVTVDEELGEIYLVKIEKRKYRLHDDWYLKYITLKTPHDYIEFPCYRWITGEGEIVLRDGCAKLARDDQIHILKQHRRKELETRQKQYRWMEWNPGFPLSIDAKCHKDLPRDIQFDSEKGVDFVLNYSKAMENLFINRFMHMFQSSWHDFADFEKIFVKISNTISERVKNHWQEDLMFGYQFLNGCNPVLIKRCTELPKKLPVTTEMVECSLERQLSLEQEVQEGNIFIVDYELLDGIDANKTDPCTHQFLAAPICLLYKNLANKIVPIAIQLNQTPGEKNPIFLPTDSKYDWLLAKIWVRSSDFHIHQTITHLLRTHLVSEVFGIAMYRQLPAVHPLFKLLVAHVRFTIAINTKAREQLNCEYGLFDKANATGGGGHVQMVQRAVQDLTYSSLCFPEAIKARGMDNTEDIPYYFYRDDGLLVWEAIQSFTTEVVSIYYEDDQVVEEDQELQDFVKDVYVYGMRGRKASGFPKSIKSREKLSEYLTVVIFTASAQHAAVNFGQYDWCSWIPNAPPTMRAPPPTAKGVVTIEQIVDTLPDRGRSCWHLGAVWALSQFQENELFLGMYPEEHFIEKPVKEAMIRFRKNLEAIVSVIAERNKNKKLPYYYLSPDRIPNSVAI
In words: Inhibition of Cell-free 5-lipoxygenase from RBL-1-cells (polarographic, 10,000 × g supernatant). It is filed as biochemical. Particulars: 10,000 × g supernatant of homogenized RBL-1-cells; arachidonic acid 75 μM; 35° C.; calculated IC50.

For test [3], the system named is 5-lipoxygenase. In words: Inhibition of 5-lipoxygenase in Rat Blood After Oral Administration (ex vivo iLTB4-formation). Particulars: 21.5 mg/kg oral, male Wistar rats, one hour after administration. The procedure:
The bioavailability of the compounds of formula I as 5-lipoxygenase inhibitors was characterized by means of an ex vivo biochemical assay method described by Tateson et al. in Brit. J. Pharmacol. 94, 528 (1988): A compound of formula I was orally administered to male rats (Wistar strain) at a dose of 21.5 mg/kg. After lethal CO2 -narcosis one hour after administration, the rats were bled by heart puncture with added heparin as an anticoagulant. Aliquots of the whole blood were incubated at 37° C. for 30 minutes in a water bath with calcium ionophore A 23 187 at an end concentration of 15 μg/ml. At the end of the incubation, the samples were centrifuged, and the concentration of the immunoreactive LTB4 (iLTB4) in aliquots of cell-free plasma was determined by radioimmunoassay (3H-LTB4 -RIA, Amersham). To enable calculation of the inhibition in percent of ex vivo iLTB4 -formation in whole rat blood treated with a compound according to the invention, rats orally treated with an appropriate vehicle solution were included in all experiments, and aliquots of their blood were run in parallel and were processed in the same way as described. The average iLTB4 -content of the plasma of the vehicletreated rats served as a 100% value. The activity in percent of the ex vivo iLTB4 -formation after oral administration of a compound according to the invention was calculated by dividing the average value of the iLTB4 -contents in ng iLTB4 /ml of the group treated with a compound according to the invention by the average value of the iLTB4 -contents in ng iLTB4 /ml of the vehicle treated group and subsequent multiplication by a factor of 100. The respective inhibition in percent was calculated by subtracting the activity in percent from 100.

For the compound `CC(=O)N(O)Cc1ccc(C(O)C#Cc2ccccc2)cc1` (racemic) [Example 1, N-Hydroxy-N-[4-[1-hydroxy-3-phenyl-prop-2-yn-1-yl]benzyl]acetamide], the IC50 in test [1] and in test [2] was 5 µM each time. Also, the “Inhibition [%] of ex vivo iLTB4-formation” value in test [3] turned out to be 93%.
